Results from PubChem BioAssay (NCI).
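Cultured in 96-well plates, cells were exposed to test compound for 48 hours across five concentrations. TGI: concentration producing complete growth inhibition.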

Assays:
Test in all cases: NCI-60 cell line screen, 48 h
NCI-H460 lung = system: NCI-H460 lung
EKVX NSCLC = system: EKVX NSCLC
NCI/ADR-RES ovarian = system: NCI/ADR-RES ovarian
MDA-MB-435 = system: MDA-MB-435
U251 CNS = system: U251 CNS
SK-MEL-5 melanoma = system: SK-MEL-5 melanoma
A549 NSCLC = system: A549 NSCLC
T-47D breast = system: T-47D breast
BT-549 breast = system: BT-549 breast
OVCAR-4 ovarian = system: OVCAR-4 ovarian
SK-MEL-2 melanoma = system: SK-MEL-2 melanoma
NCI-H226 lung = system: NCI-H226 lung
HCC-2998 colon = system: HCC-2998 colon
SNB-75 CNS = system: SNB-75 CNS

CC(=O)Oc1cc(S(=O)(=O)Nc2n[nH]c(Nc3ccc(C)cc3)n2)c(S)cc1Cl
TGI (NCI-H460 lung): > 100 µM
TGI (EKVX NSCLC): > 100 µM
TGI (NCI/ADR-RES ovarian): > 100 µM
TGI (MDA-MB-435): > 100 µM
TGI (U251 CNS): > 100 µM
TGI (SK-MEL-5 melanoma): > 100 µM
TGI (A549 NSCLC): > 100 µM
TGI (T-47D breast): > 100 µM
TGI (BT-549 breast): > 100 µM
TGI (OVCAR-4 ovarian): > 100 µM
TGI (SK-MEL-2 melanoma): > 100 µM

Cc1cc(S(=O)(=O)N2CCNNC2=O)c(S)cc1Cl
TGI (NCI-H460 lung): > 100 µM
TGI (EKVX NSCLC): > 100 µM
TGI (NCI/ADR-RES ovarian): > 100 µM
TGI (MDA-MB-435): > 100 µM
TGI (NCI-H226 lung): > 100 µM
TGI (U251 CNS): > 100 µM
TGI (SK-MEL-5 melanoma): > 100 µM
TGI (HCC-2998 colon): > 100 µM
TGI (A549 NSCLC): > 100 µM
TGI (SNB-75 CNS): > 100 µM
TGI (BT-549 breast): 64.2 µM
TGI (OVCAR-4 ovarian): > 100 µM
TGI (SK-MEL-2 melanoma): > 100 µM

O=P1(c2ccccc2)c2ccccc2-c2ccccc21
TGI (EKVX NSCLC): > 100 µM
TGI (MDA-MB-435): > 100 µM
TGI (NCI-H226 lung): > 100 µM
TGI (SK-MEL-5 melanoma): > 100 µM
TGI (HCC-2998 colon): > 100 µM
TGI (A549 NSCLC): > 100 µM
TGI (SNB-75 CNS): > 100 µM
TGI (BT-549 breast): > 100 µM
TGI (SK-MEL-2 melanoma): > 100 µM

COc1cc(C2C3=C(COC3=O)Oc3cc4c(cc32)OCO4)ccc1O (centres undefined)
TGI (NCI-H460 lung): > 100 µM
TGI (EKVX NSCLC): > 100 µM
TGI (NCI/ADR-RES ovarian): > 100 µM
TGI (NCI-H226 lung): > 100 µM
TGI (U251 CNS): > 100 µM
TGI (SK-MEL-5 melanoma): 0.736 µM
TGI (HCC-2998 colon): 6.34 µM
TGI (A549 NSCLC): > 100 µM
TGI (T-47D breast): > 100 µM
TGI (SNB-75 CNS): 0.652 µM
TGI (BT-549 breast): > 100 µM
TGI (OVCAR-4 ovarian): > 75.3 µM
TGI (SK-MEL-2 melanoma): > 100 µM

CC(=O)OCC1OC(n2ccc(=O)[nH]c2=O)C(OC(C)=O)C(OC(C)=O)C1OC(C)=O (centres undefined)
TGI (NCI-H460 lung): > 100 µM
TGI (EKVX NSCLC): > 100 µM
TGI (NCI-H226 lung): > 100 µM
TGI (U251 CNS): > 100 µM
TGI (SK-MEL-5 melanoma): > 100 µM
TGI (HCC-2998 colon): > 100 µM
TGI (A549 NSCLC): > 100 µM
TGI (SNB-75 CNS): > 100 µM
TGI (OVCAR-4 ovarian): > 100 µM
TGI (SK-MEL-2 melanoma): > 100 µM

CNC(=O)NCNC(=O)NC
TGI (NCI-H460 lung): > 100 µM
TGI (EKVX NSCLC): > 100 µM
TGI (U251 CNS): > 100 µM
TGI (SK-MEL-5 melanoma): > 100 µM
TGI (HCC-2998 colon): > 100 µM
TGI (A549 NSCLC): > 100 µM
TGI (SNB-75 CNS): > 100 µM
TGI (OVCAR-4 ovarian): > 100 µM
TGI (SK-MEL-2 melanoma): > 100 µM

CCc1c2c(cc3c1CC1(C3)Cc3cc4c(c(C(=O)OC)c3C1)CCCC4)CCCC2 (centres undefined)
TGI (EKVX NSCLC): 83.9 µM
TGI (NCI/ADR-RES ovarian): > 100 µM
TGI (MDA-MB-435): > 100 µM
TGI (NCI-H226 lung): > 100 µM
TGI (U251 CNS): > 100 µM
TGI (SK-MEL-5 melanoma): > 100 µM
TGI (HCC-2998 colon): > 100 µM
TGI (A549 NSCLC): > 100 µM
TGI (T-47D breast): > 100 µM
TGI (OVCAR-4 ovarian): > 100 µM
TGI (SK-MEL-2 melanoma): > 100 µM

Cc1cccc(-n2c(N)c(-c3nc4ccccc4[nH]3)sc2=S)c1
TGI (EKVX NSCLC): 82.7 µM
TGI (NCI-H226 lung): 73.9 µM
TGI (U251 CNS): 43.2 µM
TGI (SK-MEL-5 melanoma): 46.7 µM
TGI (A549 NSCLC): 71.9 µM
TGI (SNB-75 CNS): > 100 µM
TGI (OVCAR-4 ovarian): > 100 µM
TGI (SK-MEL-2 melanoma): 62.3 µM

CN(CC(=O)O)c1ncc2c(n1)C=CCC2
TGI (NCI-H460 lung): > 100 µM
TGI (EKVX NSCLC): > 100 µM
TGI (NCI/ADR-RES ovarian): > 100 µM
TGI (MDA-MB-435): > 100 µM
TGI (NCI-H226 lung): > 100 µM
TGI (U251 CNS): > 100 µM
TGI (SK-MEL-5 melanoma): > 100 µM
TGI (A549 NSCLC): > 100 µM
TGI (SNB-75 CNS): > 100 µM
TGI (OVCAR-4 ovarian): > 100 µM
TGI (SK-MEL-2 melanoma): > 100 µM

COc1ccc(OC)c(NCC(=O)Nn2cnc3ccc(S(=O)(=O)Nc4cc(OC)ccc4OC)cc3c2=O)c1
TGI (NCI-H460 lung): > 100 µM
TGI (EKVX NSCLC): > 100 µM
TGI (NCI/ADR-RES ovarian): > 100 µM
TGI (MDA-MB-435): > 100 µM
TGI (NCI-H226 lung): > 100 µM
TGI (U251 CNS): > 100 µM
TGI (HCC-2998 colon): > 100 µM
TGI (A549 NSCLC): > 100 µM
TGI (SNB-75 CNS): > 100 µM
TGI (BT-549 breast): > 100 µM
TGI (OVCAR-4 ovarian): > 100 µM
TGI (SK-MEL-2 melanoma): > 100 µM

COc1ccc(/C(=N\NC(=O)NN)C(c2ccc(OC)cc2)C2(O)C(=O)Nc3c(Cl)cc(Cl)cc32)cc1 (centres undefined)
TGI (NCI-H460 lung): > 100 µM
TGI (EKVX NSCLC): > 100 µM
TGI (NCI-H226 lung): > 100 µM
TGI (U251 CNS): > 100 µM
TGI (SK-MEL-5 melanoma): > 100 µM
TGI (HCC-2998 colon): > 100 µM
TGI (A549 NSCLC): > 100 µM
TGI (SNB-75 CNS): > 100 µM
TGI (OVCAR-4 ovarian): > 100 µM
TGI (SK-MEL-2 melanoma): > 100 µM

O=C(CN(C(=O)OC12CC3CC(CC(C3)C1)C2)C(=O)OC12CC3CC(CC(C3)C1)C2)Oc1ccc([N+](=O)[O-])cc1
TGI (NCI-H460 lung): > 100 µM
TGI (EKVX NSCLC): > 100 µM
TGI (NCI/ADR-RES ovarian): > 100 µM
TGI (MDA-MB-435): > 100 µM
TGI (NCI-H226 lung): > 100 µM
TGI (U251 CNS): > 100 µM
TGI (SK-MEL-5 melanoma): > 100 µM
TGI (HCC-2998 colon): > 100 µM
TGI (A549 NSCLC): > 100 µM
TGI (SNB-75 CNS): > 100 µM
TGI (BT-549 breast): > 100 µM
TGI (OVCAR-4 ovarian): > 100 µM

CCOC(=O)C(=O)C=P(c1ccccc1)(c1ccccc1)c1ccccc1
TGI (NCI-H460 lung): > 100 µM
TGI (EKVX NSCLC): > 100 µM
TGI (NCI-H226 lung): > 100 µM
TGI (U251 CNS): > 100 µM
TGI (SK-MEL-5 melanoma): > 100 µM
TGI (HCC-2998 colon): > 100 µM
TGI (A549 NSCLC): > 100 µM
TGI (SNB-75 CNS): > 100 µM
TGI (OVCAR-4 ovarian): > 100 µM
TGI (SK-MEL-2 melanoma): > 100 µM

CCOC(=O)C1SC(=Nc2ccc(OC)c(OC)c2)N=C1C (centres undefined)
TGI (NCI-H460 lung): > 100 µM
TGI (EKVX NSCLC): > 100 µM
TGI (NCI-H226 lung): > 100 µM
TGI (U251 CNS): > 100 µM
TGI (SK-MEL-5 melanoma): 37.2 µM
TGI (HCC-2998 colon): > 100 µM
TGI (A549 NSCLC): > 100 µM
TGI (SNB-75 CNS): 71.1 µM
TGI (OVCAR-4 ovarian): > 100 µM
TGI (SK-MEL-2 melanoma): > 100 µM

C=CCNC(=S)N1CC(C)C(=O)Nc2cc(Cl)ccc21 (centres undefined)
TGI (NCI-H460 lung): > 100 µM
TGI (EKVX NSCLC): > 100 µM
TGI (NCI-H226 lung): > 100 µM
TGI (U251 CNS): > 100 µM
TGI (SK-MEL-5 melanoma): > 100 µM
TGI (A549 NSCLC): > 100 µM
TGI (SNB-75 CNS): > 100 µM
TGI (OVCAR-4 ovarian): > 100 µM
TGI (SK-MEL-2 melanoma): > 100 µM

O=C(Nc1ccc(Cl)cc1C(F)(F)F)C(=O)C1CCCS1(=O)=O (centres undefined)
TGI (NCI-H460 lung): > 100 µM
TGI (EKVX NSCLC): > 100 µM
TGI (NCI-H226 lung): > 100 µM
TGI (U251 CNS): > 100 µM
TGI (SK-MEL-5 melanoma): > 100 µM
TGI (HCC-2998 colon): > 100 µM
TGI (A549 NSCLC): > 100 µM
TGI (SNB-75 CNS): > 100 µM
TGI (OVCAR-4 ovarian): > 100 µM

COC(=O)C1CCC(=O)N1C(c1cc(OC)c(OC)c(OC)c1)c1cc(OC)c(OC)c(OC)c1 (centres undefined)
TGI (NCI-H460 lung): > 100 µM
TGI (EKVX NSCLC): > 100 µM
TGI (MDA-MB-435): > 100 µM
TGI (U251 CNS): > 100 µM
TGI (A549 NSCLC): > 100 µM
TGI (T-47D breast): > 100 µM
TGI (SNB-75 CNS): > 100 µM
TGI (SK-MEL-2 melanoma): > 100 µM

N#CC(/C(CCC(=O)Nc1ccc(Cl)cc1)=N/NC(=O)c1cc2ccccc2cc1O)c1ccccc1 (centres undefined)
TGI (NCI-H460 lung): > 100 µM
TGI (EKVX NSCLC): > 100 µM
TGI (NCI-H226 lung): > 100 µM
TGI (U251 CNS): > 100 µM
TGI (SK-MEL-5 melanoma): 40.6 µM
TGI (HCC-2998 colon): > 100 µM
TGI (A549 NSCLC): > 100 µM
TGI (SNB-75 CNS): > 100 µM
TGI (OVCAR-4 ovarian): > 100 µM
TGI (SK-MEL-2 melanoma): 61.2 µM

CSC1NC(c2ccccc2)=C(C#N)C(=O)N1C1OCC(OC(C)=O)C(OC(C)=O)C1OC(C)=O (centres undefined)
TGI (NCI-H460 lung): > 100 µM
TGI (EKVX NSCLC): > 100 µM
TGI (NCI/ADR-RES ovarian): > 100 µM
TGI (MDA-MB-435): > 100 µM
TGI (NCI-H226 lung): > 100 µM
TGI (U251 CNS): > 100 µM
TGI (SK-MEL-5 melanoma): > 100 µM
TGI (HCC-2998 colon): > 100 µM
TGI (A549 NSCLC): > 100 µM
TGI (SNB-75 CNS): > 100 µM
TGI (BT-549 breast): > 100 µM
TGI (OVCAR-4 ovarian): > 100 µM

COc1ccc(/C(C)=N/NC(=O)c2ccncc2)c(OC)c1
TGI (NCI-H460 lung): > 10 µM
TGI (EKVX NSCLC): > 10 µM
TGI (NCI/ADR-RES ovarian): > 10 µM
TGI (NCI-H226 lung): > 10 µM
TGI (U251 CNS): > 10 µM
TGI (SK-MEL-5 melanoma): > 10 µM
TGI (HCC-2998 colon): > 10 µM
TGI (A549 NSCLC): > 10 µM
TGI (T-47D breast): > 10 µM
TGI (SNB-75 CNS): > 10 µM
TGI (BT-549 breast): > 10 µM
TGI (OVCAR-4 ovarian): > 10 µM
